In publication PMC9786170, “The Pharmacological Potential of Novel Melittin Variants from the Honeybee and Solitary Bees against Inflammation and Cancer” (Toxins, 2022):
Entries after “also recorded” stand apart in the source; their conditions may differ.

Assays:
HEK293T cells [1] = assay: Ca2+ induction assay (Fluo-8); assay type: cell-based, human; conditions: Fluo-8, 0.25, 2.5, 25 µg/mL, partly already at 2.5 µg/mL, n = 4
Protocol: (§1) Figure 2 Melittin derivates influence cellular Ca^2+ and IP1 levels. (A) For the Ca^2+ induction assay, Fluo-8 pretreated HEK293-T cells were incubated with melittin derivates in the indicated concentrations and the fluorescence was detected. (B) For the Ca^2+ inhibition assay, Fluo-8 pretreated HEK293-T cells were incubated with peptides in the indicated concentrations for 30 min, stimulated with 5 µM ionomycin, and the fluorescence was detected. (C) IP3 has a short lifetime and is rapidly degraded to IP1; therefore, IP1 was determined. For the IP1/IP3 induction assay (left panel), HEK293T cells were incubated with melittin peptides in the indicated concentration for 2 h, a detection reagent was added, and the fluorescence resonance energy transfer signal was detected. For the IP1/IP3 inhibition assay (right panel), HEK293T cells were incubated with melittin peptides in the indicated concentration for 30 min and stimulated with 20 µM ionomycin for 1.5 h. After the addition of the detection reagent, the fluorescence resonance energy transfer signal was detected. Data are expressed as mean ± SEM. (A, B, C (left)) n = 4, (C (right)) n = 3. * p ≤ 0.05 versus control.
(§2) For analysis, 5 × 10^4 HEK293 cells or 2 × 10^4 MDA-MB-231 cells were seeded in a 96-well poly-D-lysine plate, incubated at 37 °C for 24 h, and treated with 4 µM Fluo-8-AM in HBSS for 1 h at 37 °C. After 1 h, the Fluo-8/HBSS was replaced by 100 µL HBSS. Five images per second were taken using an ImageXpress Micro Confocal High Content Imaging System (Molecular Device, San Jose, CA, USA). Melittin peptides (0.25, 2.5, and 25 µg/mL), DMSO (negative control), or 5 µM ionomycin (Sigma Aldrich; Taufkirchen, Germany) (positive control) were added to the cells. For the next 20 s, an image was obtained every second. For the inhibition assay, the peptide-treated samples (30 min) were treated with 5 µM ionomycin and for the next 20 s, an image was obtained every second. The data were analyzed with the MetaXpress Software Version 6 (Molecular Devices, San Jose, CA, USA). A threshold of fluorescence intensity was defined using cells before treatment, and all cells with a fluorescence signal above the threshold level were counted. For the induction assay, the number of cells above the threshold in the toxin-treated samples were related to the cells in the DMSO-treated sample. For the inhibition assay, the number of cells above the threshold in the melittin-treated samples were related to the cells in the ionomycin-treated sample.

HEK293T cells [2] = assay: Ca2+ inhibition assay (ionomycin-stimulated, Fluo-8); assay type: cell-based, human; conditions: Fluo-8, peptide 30 min, then 5 µM ionomycin, n = 4
Protocol: as §1, §2

RAW264.7 cells [3] = assay: NO inhibition assay (LPS-stimulated, Griess); assay type: cell-based, murine; conditions: RAW264.7, peptide 30 min, then 100 ng/mL LPS 24 h, n = 3
Protocol: Figure 4 Influence of melittin derivates on inflammation-associated cell functions. (A,B) For the NO induction assay (A), RAW264.7 cells were treated with melittin peptides in the indicated concentrations for 24 h. For the NO inhibition assay (B), RAW264.7 cells were pretreated with melittin peptides in the indicated concentrations for 30 min and then stimulated with 100 ng/mL LPS for 24 h. NO was detected in the supernatant using the Griess method. […] THP-1 cell adhesion under static conditions. HUVECs were grown to confluence, preincubated with bee venoms for 30 min, and activated with TNF (10 ng/mL) for 24 h. For the leukocyte adhesion assay, untreated THP-1 cells were stained with CellTracker Green and were allowed to adhere to the treated HUVECs for 5 min. The adhesion of leukocytes onto Ecs was quantified by fluorescence measurements for all cell adhesion experiments. Data are expressed as means ± SEM, (A,B) n = 3, (C) n = 2. * p ≤ 0.05 vs. TNF (positive) control.
2 × 10^4 RAW264.7 macrophages/well were plated in a 96-well plate and cultured for 24 h at 37 °C. To investigate if the melittin peptides induce nitrogen oxide (NO) synthesis, the melittin peptides, control (DMSO), and positive control (100 ng/mL lipopolysaccharide (LPS)) were added. To evaluate the effect of melittin peptides on inhibiting NO synthesis, the cells were pre-incubated with peptides or control (DMSO) for 30 min before 100 ng/mL LPS were added. After 24 h supernatants were collected and stored at −80 °C.
NO was determined with the Griess method. Briefly, for the standard curve, different concentrations of sodium nitrite (0–50 µM) were prepared in the medium. A total of 80 µL cell supernatant or standard sample were added to a 96-well microplate and subsequently, 20 µL sulfanilamide solution (120 mg sulfanilamide in 30 mL 1 N hydrochloric acid) and 20 µL naphthylenediamine solution (180 mg N-(1-naphthyl)ethylenediamine dihydrochloride in 30 mL water) were added. After 15 min of incubation, the absorbance (540 nm) was measured with the EnSpire Plate Reader (PerkinElmer, Waltham, MA, USA). For the induction assay, the NO levels of the melittin peptides-treated samples were related to the DMSO-treated sample. For the inhibition assay, the NO levels of the melittin peptides-treated cells were correlated with the LPS-treated samples.

RAW264.7 cells [4] = assay: Cell viability assay (WST-8/Orangu formazan) in RAW264.7 cells; assay type: cell-based, murine
Protocol: Figure 1 Toxicity characterization of cells treated with melittin peptides. (A,B) For the viability assay, RAW264.7 (A) or HEK293T (B) cells were treated with bee venom compounds in the indicated concentrations for 24 h. Cells were incubated with WST-8 and the formed formazan was detected by absorbance measurements. (C) For the proliferation assay, HMEC-1 cells were grown in low density and treated after 24 h with the indicated peptide (25 µg/mL) for 72 h. Cells were stained with crystal violet solution. The amount of DNA-bound crystal violet was detected by absorbance measurements. (D) The number of sub-diploidic cells was determined by staining with propidium iodide (PI) and quantified to assess apoptosis of HUVECs. Data are expressed as mean ± SEM. (A) n = 3, (B) n = 4, (C) n = 2–3, (D) n = 2. * p ≤ 0.05 versus control.
For assessing the cytotoxicity of all peptides, various cell types and assays were utilized. To determine the cell viability of HEK293T and RAW246.7 cells, the Orangu^TM assay (Cell Guidance Systems Ltd., Cambridge, UK) was used, as previously described. 2 × 10^5 HEK293T or 2 × 10^5 RAW246.7 were seeded in 96-well plates. Different concentrations (0, 0.25, 2.5, 25 µg/mL) of melittin peptides or vehicle (DMSO) were added. After 24 h of incubation at 37 °C and 5% CO2, 10 µL of Orangu^TM cell counting solution was added and incubated for 60 min. After incubation, absorbance was measured at a wavelength of 450 nm with a reference at 650 nm at an EnSpire 2300 Multimode Plate Reader (Perkin Elmer, Lübeck, Germany). To calculate cell viability, the absorbance of vehicle-treated cells was set to 100%, and the melittin derivates-treated samples were correlated to them.

| Substance | induction of Ca2+ release (HEK293T cells [1]) | inhibition of ionomycin-induced Ca2+ release (HEK293T cells [2]) | inhibition of LPS-induced NO synthesis (RAW264.7 cells [3]) | reduction of cell viability (RAW264.7 cells [4]; RAW264.7, 25 µg/mL, 24 h, WST-8 formazan absorbance, vehicle = 100%, n = 3) | cytotoxicity in RAW264.7 (RAW264.7 cells [4]; RAW264.7 macrophage, Discussion) |
| --- | --- | --- | --- | --- | --- |
| codesane | without inducing Ca^2+ release | inhibited the ionomycin-induced Ca^2+ release; also recorded: inhibit Ca^2+ levels | prevented LPS-induced NO synthesis in a concentration-dependent manner |  |  |
| halictin |  | inhibit Ca^2+ levels |  |  |  |
| halictin [Hal2] | without inducing Ca^2+ release | inhibited the ionomycin-induced Ca^2+ release |  |  |  |
| melectin | induced a significant release of Ca^2+; also recorded: induce Ca^2+ release |  | prevented LPS-induced NO synthesis in a concentration-dependent manner |  |  |
| osmin | induced a significant release of Ca^2+; also recorded: induce Ca^2+ release |  | prevented LPS-induced NO synthesis in a concentration-dependent manner |  |  |
| xylopin [Xac1] |  | inhibit Ca^2+ levels |  |  |  |
| xylopin [Xac3] | induced a significant release of Ca^2+ |  | prevented LPS-induced NO synthesis in a concentration-dependent manner; also recorded: inhibit NO synthesis | more than 90% | induced significant cytotoxicity |
